In article PMC12434519:
Read-outs that look alike come from different tables or passages of the source.

How the values were obtained:
[1] = SAH counterscreen inhibition (counterscreen of the MTase-Glo luminescence readout); details: for SAH counterscreen inhibition: Maximum response / IC50: LUM % inhibition; for SAH counterscreen inhibition: Hill slope: fit of concentration-response curve; for IC50: read-out: SAH counterscreen inhibition: IC50
ZIKV NS5 = ZIKV NS5 (Zika virus, UniProt Q32ZE1); test: Biochemical activity assay for ZIKV NS5 MTase (MTase-Glo); details: for Emax: 0.75 h, read-out: ZIKV NS5 inhibition: Maximum measured; for ZIKV NS5 inhibition: Hill slope: fit of concentration-response curve
Description: final concentration, lab stock) during dialysis at 4 °C overnight against a buffer containing 50 mM Tris-HCl, pH 7.5, 20 mM imidazole, 500 mM NaCl, and 1 mM dithiothreitol (DTT). To remove the His6-SUMO tag, the protein sample was mixed with cOmplete His-Tag purification resin (Roche), incubated for 2 h at 4 °C, and loaded onto a gravity flow column. Since the His6-SUMO tag bound to the column material, the flow-through was collected containing untagged target protein. The target protein was further purified by a Superdex200 10/300 gel filtration column (GE Healthcare) in buffer (20 mM Tris-HCl, pH 7.5, 500 mM NaCl, 1 mM DTT). Fractions were analyzed by SDS-PAGE and Coomassie staining. Protein-containing fractions were pooled, flash-frozen in liquid nitrogen, and stored at -80 °C. […]
in 1X NSP14 reaction buffer (50 mM Tris-HCl, pH 7.5, 6 mM KCl, 1.25 mM MgCl2, 1 mM DTT, and 0.01% Tween-20) in a total reaction volume of 16 µl in absence or presence of increasing inhibitor compound concentrations for 45 min at 37 °C. SAH production was monitored using the bioluminescence-based MTase-Glo™ Methyltransferase Assay kit (Promega) following manufacturer’s instructions. The luminescence signal of each reaction was recorded in relative light units (RLUs) using a Synergy Neo plate reader (BioTek, Winooski, VT). […] IC50 values (mean from at least 3 independent experiments) were calculated using the GraphPad Prism software (Version 10.1.1) and a four-parameter logistic regression.
Biochemical activity assays for the human RNMT-RAM complex and ZIKV NS5 MTases Activity assays were performed in 1x NSP14 reaction buffer. For hRNMT-RAM, we used 15 nM enzyme, 2.5 µM GpppG and 2 µM SAM. For ZIKV NS5, we used 25 nM enzyme, 3 µM […]
Gppp[…]3, and 5 µM SAM. The enzymatic reaction was initiated with the addition of the enzyme in assay buffer and incubated at RT or 37 °C for 45 min, respectively. SAH was detected using the MTase-Glo™ assay.
Differential scanning fluorimetry (DSF)

human RNMT-RAM complex = human RNMT-RAM complex (Homo sapiens, UniProt O43148); test: Biochemical activity assay for the human RNMT-RAM complex (MTase-Glo); details: for hRNMT-RAM inhibition: Hill slope: fit of concentration-response curve; for Emax: read-out: hRNMT-RAM inhibition: Maximum response
[2] = Cytotoxicity in Huh-7.5 cells; type: cell-based, Homo sapiens; details: human, n = 3
Huh-7.5 cells = test: Cytotoxicity in Huh-7.5 cells; type: cell-based, Homo sapiens; details: at ≤ 3 μM compound
SARS-CoV-2 [3] = test: SARS-CoV-2 viral infection assay in Huh-7.5 cells; type: cell-based, SARS-CoV-2 (strain: USA-WA1/2020); details: n = 3
SARS-CoV-2 [4] = system: SARS-CoV-2; set-up: method as in PMID 39663451; details: transgenic mouse model; efficacy comparable to nirmatrelvir; cited from earlier work
[5] = LUM % inhibition, read-out: hRNMT-RAM inhibition: IC50
[6] = selectivity assay, read-out: ZIKV NS5 inhibition IC50

human RNMT-RAM complex, sequence (O43148 whole entry): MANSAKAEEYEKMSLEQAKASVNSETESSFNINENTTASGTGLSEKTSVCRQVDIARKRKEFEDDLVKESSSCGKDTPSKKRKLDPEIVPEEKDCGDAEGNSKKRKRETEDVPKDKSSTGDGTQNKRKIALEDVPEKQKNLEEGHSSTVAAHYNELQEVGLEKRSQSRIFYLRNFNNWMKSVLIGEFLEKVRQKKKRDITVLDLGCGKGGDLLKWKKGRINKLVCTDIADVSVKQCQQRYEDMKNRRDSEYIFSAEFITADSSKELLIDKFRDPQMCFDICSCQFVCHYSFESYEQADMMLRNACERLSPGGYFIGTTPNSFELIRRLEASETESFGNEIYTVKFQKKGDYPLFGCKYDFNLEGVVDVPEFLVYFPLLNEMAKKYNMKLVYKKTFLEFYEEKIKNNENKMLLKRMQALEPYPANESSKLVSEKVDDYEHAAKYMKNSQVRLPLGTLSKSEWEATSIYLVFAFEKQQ
human RNMT-RAM complex, sequence (Q9BTL3 whole entry partner): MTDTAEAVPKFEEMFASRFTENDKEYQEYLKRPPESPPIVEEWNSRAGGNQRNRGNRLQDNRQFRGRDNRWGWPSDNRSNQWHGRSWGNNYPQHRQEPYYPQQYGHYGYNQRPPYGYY
ZIKV NS5, sequence (Q32ZE1 2517-2781): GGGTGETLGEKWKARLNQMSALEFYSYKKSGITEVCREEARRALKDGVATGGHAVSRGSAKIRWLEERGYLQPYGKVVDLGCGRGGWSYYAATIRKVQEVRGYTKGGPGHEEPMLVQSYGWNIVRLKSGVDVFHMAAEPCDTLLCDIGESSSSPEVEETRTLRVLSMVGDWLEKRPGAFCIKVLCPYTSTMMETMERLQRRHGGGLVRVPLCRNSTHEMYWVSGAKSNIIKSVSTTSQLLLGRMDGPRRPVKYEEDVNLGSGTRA

| SMILES | SAH counterscreen inhibition: Maximum response [1] [%] | SAH counterscreen inhibition: Hill slope [1] | IC50 [1] [µM] | Emax (ZIKV NS5; LUM % inhibition) [%] | IC50 (ZIKV NS5; LUM % inhibition) [µM] | ZIKV NS5 inhibition: Hill slope (ZIKV NS5) | IC50 (human RNMT-RAM complex; [5]) [µM] | hRNMT-RAM inhibition: Hill slope (human RNMT-RAM complex) | Emax (human RNMT-RAM complex) [%] | IC50 (ZIKV NS5; [6]) [µM] | CC50 [2] [µM] | Cytotoxicity (Huh-7.5 cells) | EC50 (SARS-CoV-2 [3]; Huh-7.5 cells, read-out: Anti-SARS-CoV-2 activity EC50) [µM] | EC50 (SARS-CoV-2 [3]; Severe acute respiratory syndrome coronavirus 2, Huh7.5, read-out: Anti-SARS-CoV-2 activity EC50, Huh-7.5 cells) [µM] | Inhibition of viral replication in vivo (SARS-CoV-2 [4]) | IC50 (human RNMT-RAM complex) [µM] | Emax (human RNMT-RAM complex; LUM % inhibition) [%] |
| --- | --- | --- | --- | --- | --- | --- | --- | --- | --- | --- | --- | --- | --- | --- | --- | --- | --- |
| CCn1nc(C)c(C(=O)NCCc2ccc(CNC(=O)c3ccc4[nH]ncc4c3)cc2)c1C [RU-0834081, CCN1N=C(C)C(C(=O)NCCC2=CC=C(CNC(=O)C3=CC4=C(C=C3)NN=C4)C=C2)=C1C] | 11.2 | 6.42 | > 125 | 15.9 | > 250 | 4.21 | > 250 | 0.243 | 15.2 | – | – | – | – | – | – | – | – |
| Cc1nccc(C(=O)NCC2CCC3(CN(C(=O)c4cc(C)c5[nH]ncc5c4)C3)O2)c1C (centres unmarked) [RU-0834173, CC1=C2C(=CC(C(=O)N3CC4(C3)CCC(CNC(=O)C3=C(C)C(C)=NC=C3)O4)=C1)C=NN2] | 12.6 | -9.25 | > 125 | 10.3 | > 250 | 20.4 | > 250 | 1.99 | 3.36 | – | – | – | – | – | – | – | – |
| Cc1nc(C)c(C(=O)NCc2ccc(CNC(=O)c3ccc(O)c(F)c3)cc2)nc1C [RU-0834080, CC1=NC(C)=C(C)N=C1C(=O)NCC1=CC=C(CNC(=O)C2=CC(F)=C(O)C=C2)C=C1] | 16.2 | -2.71 | > 125 | 18.4 | > 250 | 1.81 | > 250 | 1.28 | 23.1 | – | – | – | – | – | – | – | – |
| O=C(Cn1cccc(-c2nc(-c3ccccc3)no2)c1=O)Nc1ccc(F)cc1F [RU-0833868, Fc1c(NC(=O)CN2C=CC=C(c3nc(c4ccccc4)no3)C2=O)ccc(F)c1] | 21.5 | 19.2 | > 125 | 64.4 | – | 0.969 | > 250 | 3.14 | 5.14 | 122 | – | – | – | – | – | – | – |
| Cc1cc(S(=O)(=O)c2cc(C(=O)NCc3c(F)ccc4cnn(C5CC5)c34)n(C)c2C)cc2cn[nH]c12 [TDI-016037] | – | – | – | – | – | – | – | – | – | – | ≥ 3 | no cytotoxicity was detected | 0.008 | 0.0086 | – | – | – |
| C[C@@H](NC(=O)c1ccc(CNC(=O)c2ccc3[nH]ncc3c2)cc1)c1cccc(O)c1 [RU-0834179, C[C@@H](NC(=O)C1=CC=C(CNC(=O)C2=CC=C3NN=CC3=C2)C=C1)C1=CC(O)=CC=C1] | 14.4 | 11.5 | > 125 | 12.5 | > 250 | 1.12 | > 250 | 0.0614 | 6.78 | – | – | – | – | – | – | – | – |
| COc1ccc(-c2ocnc2C(=O)Nc2ccc3oc(=O)n(CC(=O)N4CCCCC4)c3c2)cc1 [RU-0833661, COC1=CC=C(C2=C(C(=O)NC3=CC=C4OC(=O)N(CC(=O)N5CCCCC5)C4=C3)N=CO2)C=C1] | 20.6 | 0.36 | > 125 | 66.6 | – | 1.01 | > 125 | 5.03 | 36.6 | 73.7 | – | – | – | – | – | – | – |
| Cc1cnc(C(=O)NCc2ccc(CNC(=O)c3ccc(O)c(C)c3)cc2)c(C)c1 [RU-0834201, CC1=CC(C)=C(C(=O)NCC2=CC=C(CNC(=O)C3=CC=C(O)C(C)=C3)C=C2)N=C1] | 14.6 | -59.4 | > 125 | 12.1 | > 250 | 0.157 | > 250 | 35.3 | 6.56 | – | – | – | – | – | – | – | – |
| Cc1cnc(C(C)NC(=O)c2ccc(CNC(=O)c3ccc(O)c(C)c3)cn2)nc1 (centres unmarked) [RU-0834184, CC1=CN=C(C(C)NC(=O)C2=NC=C(CNC(=O)C3=CC=C(O)C(C)=C3)C=C2)N=C1] | 16.9 | 13.5 | > 125 | 12.7 | > 250 | 1.19 | > 250 | 137 | 5.53 | – | – | – | – | – | – | – | – |
| Cc1ccc(C)c(C(=O)NCC2CCC3(CN(C(=O)c4cc(C)c(O)c(C)c4)C3)O2)c1C (centres unmarked) [RU-0834178, CC1=CC(C(=O)N2CC3(C2)CCC(CNC(=O)C2=C(C)C=CC(C)=C2C)O3)=CC(C)=C1O] | 18.2 | -6.31 | > 125 | 20.5 | > 250 | 0.402 | > 250 | 13.1 | 3.1 | – | – | – | – | – | – | – | – |
| Cc1cc(C(=O)NCc2ccc(C(=O)NC(C)c3ccccc3C)nc2)ccc1O (centres unmarked) [RU-0834146, CC1=CC(C(=O)NCC2=CN=C(C(=O)NC(C)C3=C(C)C=CC=C3)C=C2)=CC=C1O] | 16.1 | -44.2 | > 125 | 11.2 | > 250 | 10.6 | > 250 | 86 | 4.85 | – | – | – | – | – | – | – | – |
| Cc1cccc(C(=O)NCC2CCC3(CN(C(=O)c4cc(C)c5[nH]ncc5c4)C3)O2)c1F (centres unmarked) [RU-0834174, CC1=CC(C(=O)N2CC3(C2)CCC(CNC(=O)C2=CC=CC(C)=C2F)O3)=CC2=C1NN=C2] | 16.2 | -17 | > 125 | 12.9 | > 250 | 1.95 | > 250 | 0.374 | 26.5 | – | – | – | – | – | – | – | – |
| Cc1c(S(=O)(=O)N2CCc3[nH]ncc3C2)cc(C(=O)NCc2c(F)ccc3occc23)n1C [TDI-015051] | – | – | – | – | – | – | – | – | – | – | – | – | – | – | inhibited viral replication | – | – |
| Cc1cc(C)c(C(=O)NCc2ccc(CNC(=O)c3ccc(O)c(C)c3)cc2)cn1 [RU-0834181, CC1=CC(C(=O)NCC2=CC=C(CNC(=O)C3=CN=C(C)C=C3C)C=C2)=CC=C1O] | 12.2 | 63.6 | > 125 | 14.9 | > 250 | 0.143 | > 250 | 0.346 | 20.8 | – | – | – | – | – | – | – | – |
| Nc1ncnc2c1ncn2C1OC(CC(N)CCC(N)C(=O)O)C(O)C1O (centres unmarked) [RU-0425548] | 8.34 | 7.74 | > 62.5 | 109 | 0.21 | 0.774 | – | 0.881 | – | – | – | – | – | – | – | 0.00596 | 102 |
| Cc1ccc(NC(=O)Cn2nnc3ccccc3c2=O)cc1S(=O)(=O)N1CCCCC1 [RU-0833928, S(=O)(=O)(N1CCCCC1)c1c(C)ccc(NC(=O)CN2N=Nc3c(cccc3)C2=O)c1] | 21.6 | -3.01 | > 125 | 9.49 | > 250 | -7.54 | > 250 | 0.501 | 8.18 | – | – | – | – | – | – | – | – |
